ChEMBL document CHEMBL3045295, “Antifeedant triterpenoids from the seeds and bark of Lansium domesticum cv Kokossan (Meliaceae)” (2011)

These molecules were tested on Henosepilachna vigintioctopunctata (assay: Antifeedant activity against fourth-instar larvae of Henosepilachna vigintioctopunctata on Solanum nigrum leaves at 1 % relative to control).
Type: functional
In the case of C=C1CC[C@H]2C(C)(C)C(=O)CC[C@]2(C)[C@H]1CC[C@H]1C(C)=CC[C@H]2C(C)(C)C(=O)CC[C@]12C, the AFI is reported as 56%.
For CC1=CC[C@H]2C(C)(C)C(=O)CC[C@]2(C)[C@H]1CC[C@H]1C(C)=CC[C@H]2C(C)(C)C(=O)CC[C@]12C, the AFI was 85%.
Molecule COC(=O)[C@@H]1O[C@]23O[C@H]4CC[C@]5(C)C(=CC(=O)O[C@H]5c5ccoc5)[C@H]4C[C@]2(O)C(=O)C(C)(C)[C@H]1[C@@H]3C [KOKOSANOLIDE A] has an AFI of 78%.
Molecule COC(=O)[C@@H]1O[C@]23O[C@H]4CC[C@]5(C)C(=CC(=O)O[C@H]5c5ccoc5)[C@H]4C[C@]2(O)CC(C)(C)[C@H]1[C@@H]3C [KOKOSANOLIDE C] has an AFI of 0%.
CC1=CC[C@H]2C(C)(C)C(=O)CC[C@]2(C)[C@H]1CC[C@H]1C(C)(O)CC[C@H]2C(C)(C)C(=O)CC[C@]12C (stereo not given in full) [Kokosanolide B] was tested, and the AFI was 99%.
